This note sets out measurements from US20240368194A1, “IRAK4 DEGRADATION AGENT, AND PREPARATION METHOD THEREFOR AND USE THEREOF” (SHANGHAI LEADINGTAC PHARMACEUTICAL CO. LTD., priority 2021, published 2024).

The target in one experiment is IRAK4 kinase (Homo sapiens (Human), UniProt Q9NWZ3). Description: IRAK4 kinase activity test (KinEASE-STK S1 HTRF kit). The experiment is classed as biochemical. As to conditions: 2.5 nM IRAK4 kinase, 7 μM ATP, 37° C. 120 min. As to the method: Then 2.5 nM 1RAK4 kinase (Carna), 1 μM biotinylated polypeptide substrate (Cisbio) and 7 μM adenosine triphosphate (Sigma-Aldrich) were sequentially added, and the mixtures were incubated at 37° C. for 120 min. Subsequently, an anti-phosphoserine/threonine antibody (Cisbio) conjugated with a europium element compound and conjugated modified XL665 streptavidin (Cisbio) were added to the reaction systems to stop the reactions. After 1 h of incubation at room temperature, the fluorescence intensity of each well was measured at the excitation wavelength of 337 nm and the emission wavelengths of 620 nm and 665 nm with a microplate reader EnVision (PerkinElmer) in the HTRF mode, and Ratio values were calculated using the formula Ratio=(665 nm/620 nm)×[…]. The inhibition rate of the compound at each concentration was calculated by comparing the fluorescence intensity ratio with that of the control group. Then a non-linear curve fitting of logarithmic concentration-inhibition rate was performed using GraphPad Prism 7, and the IC50 value of the compound was obtained.
Sequence of IRAK4 kinase (Q9NWZ3 whole entry): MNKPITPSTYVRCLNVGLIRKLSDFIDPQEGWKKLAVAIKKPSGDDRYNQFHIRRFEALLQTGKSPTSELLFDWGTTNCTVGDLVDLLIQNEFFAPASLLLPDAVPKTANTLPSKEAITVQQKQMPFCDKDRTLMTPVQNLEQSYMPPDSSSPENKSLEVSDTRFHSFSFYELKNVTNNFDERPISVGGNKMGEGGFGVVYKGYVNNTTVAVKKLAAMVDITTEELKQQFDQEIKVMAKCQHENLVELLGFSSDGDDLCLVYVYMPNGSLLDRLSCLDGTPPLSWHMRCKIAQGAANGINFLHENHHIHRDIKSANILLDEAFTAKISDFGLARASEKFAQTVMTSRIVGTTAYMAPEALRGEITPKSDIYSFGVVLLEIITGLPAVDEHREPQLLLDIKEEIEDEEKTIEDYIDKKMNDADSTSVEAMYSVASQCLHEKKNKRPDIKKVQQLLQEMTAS
A general note: TR-FRET usually uses a lanthanide donor and a delayed reading to cut background.

For experiment [1], the target named is IRAK4 protein in THP-1 cells (Homo sapiens (Human), UniProt Q9NWZ3). Put plainly: Degradation of IRAK4 in THP-1 cells, human IRAK4 AlphaLISA assay. Format: cell-based. As to conditions: 24 h incubation. Here is the method: THP-1 cells (Stem Cell Bank, Chinese Academy of Sciences) were inoculated onto a 24-well cell culture plate at 0.95 mL/well, with a cell density of 5×10^5 cells/well. The cell plate was incubated overnight in a 37° C., 5% carbon dioxide incubator, and 50 μL of a solution of a compound in dimethyl sulfoxide was added, such that the final concentration of the compound fell within the range of 0.03-3000 nM. After another 24 h of incubation, cells were collected into 1.5 mL centrifuge tubes and centrifuged at 1000 rpm at 4° C. for 5 min. The cell pellets were washed twice with 1×DPBS. The resuspended cells were lysed with 200 μL of lysis buffer (Western and IP cell lysis buffer (Beyotime), supplemented with 1 mM phenylmethylsulfonyl fluoride and protease inhibitor cocktail (Beyotime)), left to stand on ice for 30 mini, and then centrifuged at 14,000 g at 4° C. for 10 min. The supernatant samples were assayed by Western Blot for IRAK4 protein levels.
Sequence of IRAK4 protein in THP-1 cells (Q9NWZ3 whole entry): as above
The above cell lysates were also tested for IRAK4 degradation using a human IRAK4 AlphaLISA assay kit (PerkinElmer, AL3117C). The method is specifically as follows: 2-μL test samples of cell lysate supernatant were transferred to a white 384-well plate (PerkinElmer, 6007299), and 4 μL of 5× anti-IRAK4 receptor beads (PerkinElmer, final concentration of 10 μg/mL) was then added. The plate was incubated at 23° C. for 30 min. Then 4 μL of 5× biotin-labeled anti-IRAK4 antibody (PerkinElmer, final concentration of 1 nM) was added, and the plate was incubated at 23° C. for 60 min. Finally, 10 μL of 2′ streptavidin-labeled donor beads (final concentration of 40 μg/mL) was added to each well, and the plate was incubated in the dark at 23° C. for 30 min. After the incubation was complete, AlphaLISA signal values were measured on a microplate reader EnVision (PerkinElmer, 2105) in the AlphaScreen standard mode, and IRAK4 concentrations were calculated from these signal values. Then a non-linear curve fitting of logarithmic concentration-inhibition rate was performed using GraphPad Prism 7, and the DC50 and Dmax values of the compound were obtained.
(Alpha assays give light when donor and acceptor beads are brought close together.)

Molecules are shown by their SMILES.

On IRAK4 kinase, `O=C1CCN(c2cc(C(=O)N3CCN(C[C@H]4CC[C@H](n5cc(NC(=O)c6cnn7ccc(N8C[C@H]9C[C@@H]8CO9)nc67)c(C(F)F)n5)CC4)CC3)ccc2Cl)C(=O)N1` [Example 3, 5-((1R,4R)-2-oxa-5-azabicyclo[2.2.1]heptan-5-yl)-N-(1-((1R,4R)-4-((4-(4-chloro-3-(2,4-dioxotetrahydropyrimidin-1(2H)-yl)benzoyl)piperazin-1-yl)methyl)cyclohexyl)-3-(difluoromethyl)-1H-pyrazol-4-yl)pyrazolo[1,5-a]pyrimidine-3-carboxamide] had a half-inhibitory concentration (IC50) of 67.2 nM.

As to `CN(CC1CCN(C(=O)c2ccc(Cl)c(N3CCC(=O)NC3=O)c2)CC1)C[C@H]1CC[C@H](n2cc(NC(=O)c3cnn4ccc(N5C[C@H]6C[C@@H]5CO6)nc34)c(C(F)F)n2)CC1` [Example 4, 5-((1R,4R)-2-oxa-5-azabicyclo[2.2.1]heptan-5-yl)-N-(1-((1R,4R)-4-((((1-(4-chloro-3-(2,4-dioxotetrahydropyrimidin-1(2H)-yl)benzoyl)piperidin-4-yl)methyl)(methyl)amino)methyl)cyclohexyl)-3-(difluoromethyl)-1H-pyrazol-4-yl)pyrazolo[1,5-a]pyrimidine-3-carboxamide], on IRAK4 kinase, the half-maximal inhibitory concentration (IC50) stood at 37 nM.

`O=C1CCN(c2cc(C(=O)N3CCC4(CCN(CC5CCN(c6ccc(NC(=O)c7cnn8ccc(N9C[C@H]%10C[C@@H]9CO%10)nc78)c(Cl)c6)CC5)CC4)CC3)ccc2Cl)C(=O)N1` [Example 6, 5-((1R,4R)-2-oxa-5-azabicyclo[2.2.1]heptan-5-yl)-N-(2-chloro-4-(4-((9-(4-chloro-3-(2,4-dioxotetrahydropyrimidin-1(2H)-yl)benzoyl)-3,9-diazaspiro[5.5]undecan-3-yl)methyl)piperidin-1-yl)phenyl)pyrazolo[1,5-a]pyrimidine-3-carboxamide] displayed an IC50 at IRAK4 kinase of 524 nM.

As for `O=C1CCN(c2cc(C(=O)N3CCC(C#CCN4CCC(n5cc(NC(=O)c6cnn7ccc(N8C[C@H]9C[C@@H]8CO9)nc67)c(C(F)F)n5)CC4)CC3)ccc2Cl)C(=O)N1` [Example 12, 5-((1R,4R)-2-oxa-5-azabicyclo[2.2.1]heptan-5-yl)-N-(1-(1-(3-(1-(4-chloro-3-(2,4-dioxotetrahydropyrimidin-1(2H)-yl)benzoyl)piperidin-4-yl)prop-2-yn-1-yl)piperidin-4-yl)-3-(difluoromethyl)-1H-pyrazol-4-yl)pyrazolo[1,5-a]pyrimidine-3-carboxamide], the IC50 on IRAK4 kinase was found to be 270 nM.

In turn, `O=C1CCN(c2cc(C(=O)N3CCC(CCCN4CCC(n5cc(NC(=O)c6cnn7ccc(N8C[C@H]9C[C@@H]8CO9)nc67)c(C(F)F)n5)CC4)CC3)ccc2Cl)C(=O)N1` [Example 14, 5-((1R,4R)-2-oxa-5-azabicyclo[2.2.1]heptan-5-yl)-N-(1-(1-(3-(1-(4-chloro-3-(2,4-dioxotetrahydropyrimidin-1(2H)-yl)benzoyl)piperidin-4-yl)propyl)piperidin-4-yl)-3-(difluoromethyl)-1H-pyrazol-4-yl)pyrazolo[1,5-a]pyrimidine-3-carboxamide] displayed an IC50 on IRAK4 kinase of 124 nM. This IC50 is about 2.2-fold lower than that of the compound before.

Compound `O=C1CCN(c2ccc(C(=O)N3CCC4(CCC(CN5CCC(n6cc(NC(=O)c7cnn8ccc(N9CCOCC9)nc78)c(C(F)F)n6)CC5)CC4)CC3)cc2)C(=O)N1` [Example 27, N-(3-(difluoromethyl)-1-(1-((3-(4-(2,4-dioxotetrahydropyrimidin-1(2H)-yl)benzoyl)-3-azaspiro[5.5]undecan-9-yl)methyl)piperidin-4-yl)-1H-pyrazol-4-yl)-5-morpholinopyrazolo[1,5-a]pyrimidine-3-carboxamide] came in with an IC50 against IRAK4 kinase of 13.5 nM.

In experiment [1], `Cc1ccc(C(=O)N2CCC3(CCN(C[C@H]4CC[C@H](n5cc(NC(=O)c6cnn7ccc(N8CCC[C@H](O)C8)nc67)c(C(F)F)n5)CC4)CC3)CC2)cc1N1CCC(=O)NC1=O` [Example 45, N-(3-(difluoromethyl)-1-((1R,4S)-4-((9-(3-(2,4-dioxotetrahydropyrimidin-1(2H)-yl)-4-methylbenzoyl)-3,9-diazaspiro[5.5]undecan-3-yl)methyl)cyclohexyl)-1H-pyrazol-4-yl)-5-((S)-3-hydroxypiperidin-1-yl)pyrazolo[1,5-a]pyrimidine-3-carboxamide] returned a DC50 of 0.82 nM and a Dmax of 96.2%.

For the compound `CN(CCC1CCN(C(=O)c2ccc(Cl)c(N3CCC(=O)NC3=O)c2)CC1)C[C@H]1CC[C@H](n2cc(NC(=O)c3cnn4ccc(N5CCC[C@H](N)C5)nc34)c(C(F)F)n2)CC1` [Example 47, 5-((S)-3-aminopiperidin-1-yl)-N-(1-((1R,4S)-4-(((2-(1-(4-chloro-3-(2,4-dioxotetrahydropyrimidin-1(2H)-yl)benzoyl)piperidin-4-yl)ethyl)(methyl)amino)methyl)cyclohexyl)-3-(difluoromethyl)-1H-pyrazol-4-yl)pyrazolo[1,5-a]pyrimidine-3-carboxamide], in experiment [1], the 50% degradation concentration (DC50) worked out at 4.84 nM and the Dmax is 99%.

As for `O=C1CCN(c2cc(C(=O)N3CCC4(CCN(C[C@H]5CC[C@H](n6cc(NC(=O)c7cnn8ccc(N9CC%10(COC%10)C9)nc78)c(C(F)F)n6)CC5)CC4)CC3)ccc2Cl)C(=O)N1` [Example 48, N-(1-((1R,4R)-4-((9-(4-chloro-3-(2,4-dioxotetrahydropyrimidin-1(2H)-yl)benzoyl)-3,9-diazaspiro[5.5]undecan-3-yl)methyl)cyclohexyl)-3-(difluoromethyl)-1H-pyrazol-4-yl)-5-(2-oxa-6-azaspiro[3.3]heptan-6-yl)pyrazolo[1,5-a]pyrimidine-3-carboxamide], in experiment [1], it took 5.55 nM to reach half-maximal degradation (DC50) and the greatest degradation seen (Dmax) was found to be 94.4%.

Compound `O=C1CCN(c2cc(N3CCN(CCCCN4CCC(n5cc(NC(=O)c6cnn7ccc(N8C[C@H]9C[C@@H]8CO9)nc67)c(C(F)F)n5)CC4)CC3)ccc2Cl)C(=O)N1` [Example 51, 5-((1R,4R)-2-oxa-5-azabicyclo[2.2.1]heptan-5-yl)-N-(1-(1-(4-(4-(4-chloro-3-(2,4-dioxotetrahydropyrimidin-1(2H)-yl)phenyl)piperazin-1-yl)butyl)piperidin-4-yl)-3-(difluoromethyl)-1H-pyrazol-4-yl)pyrazolo[1,5-a]pyrimidine-3-carboxamide] registered an IC50 against IRAK4 kinase of 27.1 nM.

In the case of `CN(CCC1CCN(C(=O)c2ccc(F)c(C3CCC(=O)NC3=O)c2)CC1)C(=O)[C@H]1CC[C@H](n2cc(NC(=O)c3cnn4ccc(N5CCOCC5)nc34)c(C(F)F)n2)CC1` (stereo partly drawn) [Example 54, N-(3-(difluoromethyl)-1-((1R,4R)-4-((2-(1-(3-(2,6-dioxopyridin-3-yl)-4-fluorobenzoyl)piperidin-4-yl)ethyl)(methyl)carbamoyl)cyclohexyl)-1H-pyrazol-4-yl)-5-morpholinopyrazolo[1,5-a]pyrimidine-3-carboxamide], in experiment [1], the half-maximal degradation concentration (DC50) stood at 8.13 nM and the Dmax stood at 88.2%.

In experiment [1], `COc1ccc(C(=O)N2CCC3(CCC(N(C)C[C@H]4CC[C@H](n5cc(NC(=O)c6cnn7ccc(N8CCOCC8)nc67)c(C(F)F)n5)CC4)CC3)CC2)cc1N1CCC(=O)NC1=O` [Example 59, N-(3-(difluoromethyl)-1-((1R,4R)-4-(((3-(3-(2,4-dioxotetrahydropyrimidin-1(2H)-yl)-4-methoxybenzoyl)-3-azaspiro[5.5]undecan-9-yl)(methyl)amino)methyl)cyclohexyl)-1H-pyrazol-4-yl)-5-morpholinopyrazolo[1,5-a]pyrimidine-3-carboxamide] yielded a DC50 of 7.92 nM and a Dmax of 70.8%.

`CN(CCC1CCN(C(=O)c2ccc(Cl)c(N3CCC(=O)NC3=O)c2)CC1)C[C@]1(O)CC[C@@H](n2cc(NC(=O)c3cnn4ccc(N5C[C@H]6C[C@@H]5CO6)nc34)c(C(F)F)n2)CC1` [Example 65, 5-((1R,4R)-2-oxa-5-azabicyclo[2.2.1]heptan-5-yl)-N-(1-((1S,4S)-4-(((2-(1-(4-chloro-3-(2,4-dioxotetrahydropyrimidin-1(2H)-yl)benzoyl)piperidin-4-yl)ethyl)(methyl)amino)methyl)-4-hydroxycyclohexyl)-3-(difluoromethyl)-1H-pyrazol-4-yl)pyrazolo[1,5-a]pyrimidine-3-carboxamide]: in experiment [1], it took 14.3 nM to reach half-maximal degradation (DC50) and the Dmax came out at 87.2%.

For orientation: IC50 means the concentration that inhibits the measured activity by half. A low value points to inhibition by little substance. Broadly, the DC50 is the midpoint of the concentration-degradation curve. Read a high DC50 as degradation only at high concentration. As usually defined, the Dmax is the greatest extent of degradation seen. High values mean deep degradation, low ones shallow degradation.
